Here are results for 27 compounds from US5179093A, “Quinoline-diones” (Schering Corporation, priority 1991, dated 1993).

Structures are written as SMILES. ≈ marks a conversion by molar mass, not a printed value. Where only a bound is given, the exact number is not on record here.

What is called IC50 is the concentration needed to halve the response being measured.

Data set [1] has as its system HSV-2 (strain MS). The data set can be described thus: Transient expression of beta galactosidase in transfected HeLa cells superinfected with HSV-2 (HSV-β-GAL assay). Type of data set: cell-based. The note with it: Human alphaherpesvirus 2, plasmid pON 245^ori-, moi=5 pfu/cell, 24 hours, read-out: ANTI-HSV ACTIVITY HSV-β-GAL ASSAY IC50. How it is done: HeLa and Vero cell cultures were maintained in Eagles Minimal Essential Medium (EMEM) which was supplemented with glutamine, penicillin, streptomycin and 10% fetal calf serum (10% EMEM). Stock cultures of HSV-2 (strain MS available from ATCC VR-540) were grown in and harvested from Vero cells. Viral stocks were titered in Vero cells according to established procedures.
Plasmid pON 245^ori- contains the promoter of the HSV-1 thymidine kinase (tk) gene located immediately 5' of the E. coli lac Z gene. In this arrangement, the tk promoter controls transcription from the bacterial gene in transient expression assays. Additionally, an SV40 polyadenylation signal is present at the 3' end of the lac Z gene to allow for the efficient translation of the mRNA in eucaryotic cells. The expression of beta galactosidase in a transient assay using pON 245^ori- is dependent upon superinfection of the transfected cells with HSV. […] For example see U.S. application Ser. No. 07/435,491 filed Sep. 5, 1989, the disclosure of which is incorporated herein by reference thereto.
HeLa cells were seeded into 96 well microtiter plates and allowed to grow to 80% confluency (approximately 35,000 cells/well). One half microgram of plasmid pON 245^ori- DNA was introduced into the cells of each well by the […] precipitation technique (Grahman and Van der Eb, 1973). Four to six hours later, the cells were rinsed with hank's Balanced Salt Solution (HBSS), overlaid with 10% EMEM and incubated at 37° C. At 24 hrs post-transfection, cells were rinsed, overlaid with 10% EMEM again and re-incubated at 37° C. At 48 hrs post-transfection, cells were rinsed and overlaid with either EMEM containing 2% fetal calf serum (2% EMEM), 2% EMEM containing HSV-2 (strain MS, Multiplicity of Infection [moi]=5 pfu/cell) or 2% EMEM containing HSV-2 and the appropriate concentration of Schering compound to be tested. Twenty-four hours later, the cells were harvested and assayed for beta galactosidase activity as described below.
All determinations of beta galactosidase activity were performed in 96 well microtiter plates. The intracellular level of beta galactosidase activity in each well was determined from cell lysates of the monolayer cultures. Aliquots were assayed by incubation in the presence of beta galactosidase substrate, 4-methylumbelliferyl-β-D-galactoside (MUG, 125 ug/ml, Sigma), for 2 hours. The generation of fluorescent product was quantified on a Microfluor microfluorimeter (Dynatech) after addition of 0.1M glycine, pH 10.3 (Spaete and Mocarski, 1985). The inhibitory activity of a compound was plotted versus the concentration and an IC50 value (the concentration of compound required to reduce beta glactosidase expression by 50%) was obtained for each compound tested.

Data set [2] can be described thus: Compound toxicity assay: inhibition of HeLa cell translation (^3 H-LEU assay). It is filed as cell-based. The conditions noted are these: human; HeLa cells, overnight (24 hours) treatment, tritiated leucine incorporation; read-out: CYTOTOXICITY ^3 H--LEU ASSAY IC50. How it is done:
HeLa cells were treated with inhibitory compound for 24 hours, after which levels of translational activity were assayed.
For assay of translational activity, HeLa cultures were grown to 80% confluency in 96 well microtiter plates, treated with appropriate concentrations of compound in 2% EMEM during an overnight incubation at 37° C., then rinsed with HBSS and overlaid with […] of 2% EMEM containing 8 uCi of tritiated leucine (^3 H-LEU, 141 Ci/mMol, Amersham Corp., Arlington Heights Ill.). After 1 hr incubation at 36.5° C., the cells were rinsed twice with phosphate buffered saline (PBS) and lysed in 400 ul/well of 1×PBS, 0.5% sodium dodecyl sulphate (SDS). After a 10 minute incubation at 36.5° C., the contents of the well were transferred to a well in a Millititer HA microfiltration plate (Millipore Corp., Bedford, MA). The TCA insoluble proteins were precipitated onto the filter disc by a 10 minute fixation with 5% TCA, followed by filtration under vacuum and three 10 minute rinses with 95% ethanol. The filters were dried at room temperature, cut from the milltitier plate and transferred to scintillation vials. TCA precipitable counts were assayed in 5 ml of Scintisol (Isolab, Akron, Ohio). The inhibitory activity of a compound was plotted versus the concentration and an IC50 value (that concentration of the compound required to decrease cellular translational activity by 50%) was derived for each compound.

On to `CN1C(=O)C(=CNCc2ccccc2)C(=O)c2ccccc21` [EX. 14, (E,Z) 1-Methyl-3-Benzylaminomethylene-Quinolin-2,4(1H)-Dione], for which the IC50 in data set [1] was found to be 9 µg/mL (≈ 30.8 µM). In addition, the CC50 at 24 h in data set [2] was 27 µg/mL (≈ 92.4 µM).
Taken in the same sequence, the figures for `Cc1ccc2c(c1)C(=O)C(=CNCc1ccncc1)C(=O)N2Cc1ccccc1` [EX. 15, (E,Z)1-Benzyl-3-[4-Pyridylmethylamino)methylene]-6-Methyl-Quinolin-2,4(1H)-Dione] were 6 µg/mL (≈ 15.6 µM) and 37 µg/mL (≈ 96.5 µM).
Turning to `O=C1C(=CNCc2ccccc2)C(=O)N(Cc2ccccc2)c2ccc(Cl)cc21` [EX. 16, (E,Z 1-Benzyl-3-Benzylaminomethylene-6-Chloro-Quinolin-2,4(1H)-Dione], the IC50 in data set [1] was less than 3 µg/mL. Moreover, the CC50 at 24 h in data set [2] was found to be 7 µg/mL (≈ 17.4 µM).
On the same counts, the results for `O=C1C(=CNCc2ccncc2)C(=O)N(Cc2ccccc2)c2ccc(Cl)cc21` [EX. 17, (E,Z1-Benzyl-3-[(4-Pyridylmethylamino)methylene-6-Chloro-Quinolin-2,4(1H)-Dione] are 4 µg/mL (≈ 9.9 µM) and 17 µg/mL (≈ 42.1 µM).
Taken in the same sequence, the figures for `O=C1C(=CNCc2ccccc2)C(=O)N(Cc2ccccc2)c2cc(Cl)ccc21` [EX. 18, (E,Z)1-Benzyl-3-Benzylaminomethylene-7-Chloro-Quinolin-2,4(1H)-Dione] were 6 µg/mL (≈ 14.9 µM) and 10 µg/mL (≈ 24.8 µM).
In the case of `O=C1C(=CNCc2ccncc2)C(=O)N(Cc2ccccc2)c2cc(Cl)ccc21` [EX. 19, (E,Z)1-Benzyl-3-[(4-Pyridylmethylamino)methylene]7-Chloro-Quinolin-2,4(1H)-Dione], the 50% inhibitory concentration (IC50) in data set [1] came out at 13 µg/mL (≈ 32.2 µM). Besides, the CC50 at 24 h in data set [2] stood at 40 µg/mL (≈ 99 µM).
Take `Cc1cccc2c1N(Cc1ccccc1)C(=O)C(=CNCc1ccccc1)C2=O` [EX. 20, (E,Z) 1-Benzyl-3-Benzylaminomethylene-8-Methyl-Quinolin-2,4(1H)-Dione]: the IC50 in data set [1] is 3 µg/mL (≈ 7.84 µM). For the same compound, the CC50 at 24 h in data set [2] was 10 µg/mL (≈ 26.1 µM).
Taken in the same sequence, the figures for `Cc1cccc2c1N(Cc1ccccc1)C(=O)C(=CNCc1ccncc1)C2=O` [EX. 21, (E,Z)1-Benzyl-3-[(4-Pyridylmethylamino)methylene]-8-Methyl-Quinolin-2,4(1H)-Dione] were less than 3 µg/mL and 29 µg/mL (≈ 75.6 µM).
Taken in the same sequence, the figures for `CN1C(=O)C(=CNCc2ccncc2)C(=O)c2ccccc21` [EX. 22, (E,Z)1-Methyl-3-[(4-Pyridylmethylamino)methylene]Quinolin-2,4(1H)-Dione] were less than 3 µg/mL and 100 µg/mL (≈ 341 µM).
For `O=C1C(=CNCc2ccncc2)C(=O)N(Cc2ccccc2)c2ccccc21` [EX. 24, (E,Z)1-Benzyl-3-[(4-Pyridylmethylamino)methylene]-Quinolin-2,4(1H)-Dione], in data set [1], the IC50 amounted to 10 µg/mL (≈ 27.1 µM). Besides, the CC50 at 24 h in data set [2] was greater than 100 µg/mL.
On the same counts, the results for `CCCCCCN1C(=O)C(=CNCc2ccccc2)C(=O)c2ccccc21` [EX. 25, (E,Z)1-hexyl-3-benzyleminomethylene-quinolin-2,4(1H)-Dione] are less than 3 µg/mL and 37 µg/mL (≈ 102 µM).
On the same counts, the results for `CCCCCCN1C(=O)C(=CNCc2ccncc2)C(=O)c2ccccc21` [EX. 26, (E,Z)1Hexyl-3-[(4-Pyrigylmethylamino)methylene-Quinolin-2,4(1H)-Dione] are 4 µg/mL (≈ 11 µM) and 43 µg/mL (≈ 118 µM).
Taken in the same sequence, the figures for `O=C1C(=CNCc2ccccc2)C(=O)N(c2ccccc2)c2ccccc21` [EX. 27, (E,Z)1-Phenyl-3-Benzylaminomethylene-Quinolin-2,4(1H)-Dione] were 4 µg/mL (≈ 11.3 µM) and 10 µg/mL (≈ 28.2 µM).
On to `O=C1C(=CNCc2ccncc2)C(=O)N(c2ccccc2)c2ccccc21` [EX. 28, (E,Z)1-Phenyl-3-[(-Pyridylmethylamino)methylene]Quinolin-2,4(1H)-Dione], for which the IC50 in data set [1] turned out to be 7 µg/mL (≈ 19.7 µM). In addition, in data set [2], the CC50 at 24 h is 25 µg/mL (≈ 70.3 µM).
On the same counts, the results for `CCCCCCCN1C(=O)C(=CNCc2ccccc2)C(=O)c2ccccc21` [EX. 29, (E,Z)1-Heptyl-3-Benzylaminomethylene-Quinolin-2,4(1H)-Dione] are 5 µg/mL (≈ 13.3 µM) and 16 µg/mL (≈ 42.5 µM).
Regarding `CCCCCCCN1C(=O)C(=CNCc2ccncc2)C(=O)c2ccccc21` [EX. 30, (E,Z)1-Heptyl-3-[(4-Pyridylmethylamino)methylene]-Quinolin-2,4(1H)-Dione], the concentration for half-maximal inhibition (IC50) in data set [1] turned out to be 3 µg/mL (≈ 7.95 µM). Besides, the CC50 at 24 h in data set [2] is 20 µg/mL (≈ 53 µM).
Taken in the same sequence, the figures for `CC(NCc1ccccc1)=C1C(=O)Oc2ncccc2C1=O` [EX. 31, 3-[1-Benzylaminoethylidine]-2,4-dioxo-2,3-dihydro-4H-pyrido-[2,3-b]-pyran] were 11 µg/mL (≈ 37.4 µM) and greater than 100 µg/mL.
As for `CN(C)C=C1C(=O)c2cccnc2N(c2ccccc2)C1=O` [EX. 32, 1-Phenyl-3-(dimethylaminomethylene)-3,4-dihydro-2H-[1,8]-naphthyridine-2,4-dione], the IC50 in data set [1] came out at 18 µg/mL (≈ 61.4 µM). Moreover, the CC50 at 24 h in data set [2] was greater than 100 µg/mL.
Turning to `C=CCNC=C1C(=O)Oc2ccccc2C1=O` [EX. 34, E,Z-3-[Allylaminomethylene]-dihydrobenzo-[b]-pyran-2,4-dione], the IC50 in data set [1] was found to be 8 µg/mL (≈ 34.9 µM). In data set [2], the CC50 at 24 h came to 46 µg/mL (≈ 201 µM).
For `CCNC=C1C(=O)c2cccnc2N(c2ccccc2)C1=O` [EX. 35, 1-Phenyl-E,Z-3-[ethylaminomethylene]-3,4-dihydro-2H-[1,8]-naphthyridine-2,4-dione], the IC50 in data set [1] stood at 7 µg/mL (≈ 23.9 µM). In addition, in data set [2], the CC50 at 24 h was greater than 50 µg/mL.
On the same counts, the results for `O=C1C(=CNCc2ccccc2)C(=O)N(c2ccccc2)c2ncccc21` [EX. 36, 1-Phenyl-E,Z-3-[benzylaminomethylene]-3,4-dihydro-2H-[1,8]-naphthyridine-2,4-dione] are 22 µg/mL (≈ 61.9 µM) and 42 µg/mL (≈ 118 µM).
Turning to `Cc1cccc(NC=C2C(=O)c3cccnc3N(c3ccccc3)C2=O)n1` [EX. 37, 1-Phenyl-E,Z-3-[(6-methyl-2-pyridylamino)methylene]-3,4-dihydro-2H-[1,8]-naphthyridine-2,4-dione], the IC50 in data set [1] came to 22 µg/mL (≈ 61.7 µM). Also, the CC50 at 24 h in data set [2] was determined as 56 µg/mL (≈ 157 µM).
Turning to `CCNC=C1C(=O)Oc2ncccc2C1=O` [EX. 38, 3-(ethylaminomethylene)-2,4-dioxo 3,4-dihydro-2H-pyrido-[2,3-b]-pyran], in data set [1], the IC50 was greater than 25 µg/mL.
On to `CCCCCCCN1C(=O)C(=CNN2CCOCC2)C(=O)c2ccccc21` [EX. 39, (E,Z)-1-heptyl-3-[(4-morpholino)aminomethylene]-quinolin-2,4(1H)dione], for which the IC50 in data set [1] was found to be 4 µg/mL (≈ 10.8 µM). In data set [2], the CC50 at 24 h was 29 µg/mL (≈ 78.1 µM).
Turning to `CCCCCCCN1C(=O)C(=CNC23CC4CC(CC(C4)C2)C3)C(=O)c2ccccc21` [EX. 40, (E,Z)-1-heptyl-3-[1-adamantylaminomethylene]-quinolin-2,4(1H)dione], the IC50 in data set [1] stood at 5 µg/mL (≈ 11.9 µM). The CC50 at 24 h in data set [2] was 33 µg/mL (≈ 78.5 µM).
Taken in the same sequence, the figures for `O=C1C(=CNCc2cnc[nH]2)C(=O)N(Cc2ccccc2)c2ccccc21` [EX. 41, (E,Z)-1-benzyl-3-[(1H-5-imidazolylmethyl)aminomethylene]-quinolin-2,4(1H)dione] were 8 µg/mL (≈ 22.3 µM) and 34 µg/mL (≈ 94.9 µM).
Taken in the same sequence, the figures for `CCCCCCN1C(=O)C(=CN[C@H]2C(O)O[C@H](CO)[C@@H](O)[C@@H]2O)C(=O)c2ccccc21` (some centres unmarked) [EX. 42, (E,Z)-1-hexyl-3-(D) glucosaminomethylene-quinolin-2,4(1H)dione] were 10 µg/mL (≈ 23 µM) and 25 µg/mL (≈ 57.5 µM).
